ChEMBL document CHEMBL5385847, “Design, synthesis and biological evaluation of a new class of 7H-pyrrolo[2,3-d]pyrimidine derivatives as Mps1 inhibitors for the treatment of breast cancer” (Eur J Med Chem, 2023)
The source made the active and inactive calls. No cut-off for these calls is given here.

What was measured:
4T1-Luc = experiment: Inhibition of cell proliferation in mouse 4T1-Luc cells xenografted in BALB/C mouse assessed as reduction in Ki-67 positive cells at 30 to 60 mg/kg, po qd treated for 15 days by IHC analysis; type: functional, organism-based; conditions: dose 30-60 mg/kg, time 15.0 day
[1] = Toxicity in BALB/C mouse xenografted with mouse 4T1-Luc cells assessed as change in blood biochemical parameters at 30 to 60 mg/kg, po qd treated for 15 days; type: organism-based; conditions: in vivo, 360 h, dose 30-60 mg/kg, time 15 day
[2] = Toxicity in BALB/C mouse xenografted with mouse 4T1-Luc cells assessed as body weight change at 30 to 60 mg/kg, po qd treated for 15 days; type: organism-based; conditions: in vivo, 360 h, dose 30-60 mg/kg, time 15 day
4T1 [3] = experiment: Induction of apoptosis in 4T1 cells assessed as increase in cleaved PARP level upto 3 uM incubated for 48 hrs by Western blot analysis; type: functional, cell-based; conditions: Mus musculus
MCF7 [4] = experiment: Induction of apoptosis in human MCF7 cells assessed as increase in cleaved caspase-3 level upto 3 uM incubated for 48 hrs by Western blot analysis; type: functional, cell-based
4T1 [5] = experiment: Induction of apoptosis in 4T1 cells assessed as necrotic cells at 5 uM incubated for 48 hrs by Annexin V-FITC/PI staining based flow cytometry (reference value: 0.20 %); type: functional, Mus musculus
4T1 [6] = experiment: Induction of apoptosis in 4T1 cells assessed as early apoptotic cells at 1 uM incubated for 48 hrs by Annexin V-FITC/PI staining based flow cytometry (reference value: 0.32 %); type: functional, Mus musculus
4T1 [7] = experiment: Induction of apoptosis in 4T1 cells assessed as late apoptotic cells at 0.5 uM incubated for 48 hrs by Annexin V-FITC/PI staining based flow cytometry (reference value: 1.73 %); type: functional, Mus musculus
MCF7 [8] = experiment: Induction of apoptosis in human MCF7 cells assessed as necrotic cells at 5 uM incubated for 48 hrs by Annexin V-FITC/PI staining based flow cytometry (reference value: 0.03 %); type: functional
MCF7 [9] = experiment: Induction of apoptosis in human MCF7 cells assessed as late apoptotic cells at 1 uM incubated for 48 hrs by Annexin V-FITC/PI staining based flow cytometry (reference value: 0.63 %); type: functional
MCF7 [10] = experiment: Induction of apoptosis in human MCF7 cells assessed as early apoptotic cells at 0.5 uM incubated for 48 hrs by Annexin V-FITC/PI staining based flow cytometry (reference value: 1.19 %); type: functional
MCF7 [11] = experiment: Induction of cell cycle arrest in human MCF7 cells at G2/M phase assessed as decrease in CDK1 level incubated for 24 hrs by Western blot analysis; type: functional, cell-based; conditions: dose <= 3.0 µM
4T1 [12] = experiment: Induction of cell cycle arrest in 4T1 cells at G2/M phase assessed as decrease in cyclin B1 level incubated for 24 hrs by Western blot analysis; type: functional, cell-based; conditions: Mus musculus, dose <= 3.0 µM
MCF7 [13] = experiment: Induction of cell cycle arrest in human MCF7 cells at G2/M phase assessed as decrease in cyclin B1 level incubated for 24 hrs by Western blot analysis; type: functional, cell-based; conditions: dose <= 3.0 µM
Vero = experiment: Antiproliferative activity against African green monkey Vero cells assessed as inhibition of cell viability by MTT assay; type: toxicity, cell-based; conditions: chlorocebus sabaeus
L02 = experiment: Antiproliferative activity against human L02 cells assessed as inhibition of cell viability by MTT assay; type: toxicity, cell-based
ES-2 = experiment: Antiproliferative activity against human ES2 cells assessed as inhibition of cell viability upto 10 uM incubated for 72 hrs by MTT assay; type: functional, cell-based
OVCAR-3 [14] = experiment: Antiproliferative activity against human OVCAR-3 cells assessed as inhibition of cell viability upto 10 uM incubated for 72 hrs by MTT assay; type: functional, cell-based
MCF7 [15] = experiment: Antiproliferative activity against human MCF7 cells assessed as inhibition of cell viability upto 10 uM by MTT assay; type: functional, cell-based; conditions: time 24-72 hrs, TDE = time-dependent effect
HCT-116 = experiment: Antiproliferative activity against human HCT-116 cells assessed as inhibition of cell viability by MTT assay; type: functional, cell-based
OVCAR-3 [16] = experiment: Antiproliferative activity against human OVCAR-3 cells assessed as inhibition of cell viability by MTT assay; type: functional, cell-based
MCF7 [17] = experiment: Antiproliferative activity against human MCF7 cells assessed as inhibition of cell viability by MTT assay; type: functional, cell-based
MDA-MB-231 = experiment: Antiproliferative activity against human MDA-MB-231 cells assessed as inhibition of cell viability by MTT assay; type: functional, cell-based
[18] = molecular target: Cytoplasmic tyrosine-protein kinase BMX (Homo sapiens) (UniProt P51813); experiment: Inhibition of human Bmx at 0.1 uM by KINOMEscan assay relative to control
[19] = molecular target: Receptor-type tyrosine-protein kinase FLT3 (Homo sapiens) (UniProt P36888); experiment: Inhibition of human FLT3 at 0.1 uM by KINOMEscan assay relative to control
[20] = molecular target: Insulin-like growth factor 1 receptor (Homo sapiens) (UniProt P08069); experiment: Inhibition of human IGF-1R at 0.1 uM by KINOMEscan assay relative to control
[21] = molecular target: Proto-oncogene tyrosine-protein kinase Src (Homo sapiens) (UniProt P12931); experiment: Inhibition of human cSRC at 1 uM by KINOMEscan assay relative to control
[22] = molecular target: Cytoplasmic tyrosine-protein kinase BMX (Homo sapiens) (UniProt P51813); experiment: Inhibition of human Bmx at 1 uM by KINOMEscan assay relative to control
[23] = molecular target: Tyrosine-protein kinase Yes (Homo sapiens) (UniProt P07947); experiment: Inhibition of human Yes at 0.1 uM by KINOMEscan assay relative to control
Sequence of Tyrosine-protein kinase Yes (Homo sapiens) (P07947 2-543 limits assumed): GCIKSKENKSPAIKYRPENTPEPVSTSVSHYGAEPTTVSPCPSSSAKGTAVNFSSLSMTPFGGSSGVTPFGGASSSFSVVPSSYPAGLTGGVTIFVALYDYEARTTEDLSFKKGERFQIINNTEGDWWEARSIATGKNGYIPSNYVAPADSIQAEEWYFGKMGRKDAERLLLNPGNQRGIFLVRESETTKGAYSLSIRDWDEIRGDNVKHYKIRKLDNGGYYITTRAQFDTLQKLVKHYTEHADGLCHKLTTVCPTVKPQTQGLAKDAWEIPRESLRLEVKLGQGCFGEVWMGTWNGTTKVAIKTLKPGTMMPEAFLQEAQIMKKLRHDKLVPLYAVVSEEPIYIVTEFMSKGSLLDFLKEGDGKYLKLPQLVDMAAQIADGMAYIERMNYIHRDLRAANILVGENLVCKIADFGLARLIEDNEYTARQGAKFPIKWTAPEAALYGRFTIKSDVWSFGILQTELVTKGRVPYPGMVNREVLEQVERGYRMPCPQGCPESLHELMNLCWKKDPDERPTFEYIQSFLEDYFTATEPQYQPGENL

Sequence of Cytoplasmic tyrosine-protein kinase BMX (Homo sapiens) (P51813 whole entry): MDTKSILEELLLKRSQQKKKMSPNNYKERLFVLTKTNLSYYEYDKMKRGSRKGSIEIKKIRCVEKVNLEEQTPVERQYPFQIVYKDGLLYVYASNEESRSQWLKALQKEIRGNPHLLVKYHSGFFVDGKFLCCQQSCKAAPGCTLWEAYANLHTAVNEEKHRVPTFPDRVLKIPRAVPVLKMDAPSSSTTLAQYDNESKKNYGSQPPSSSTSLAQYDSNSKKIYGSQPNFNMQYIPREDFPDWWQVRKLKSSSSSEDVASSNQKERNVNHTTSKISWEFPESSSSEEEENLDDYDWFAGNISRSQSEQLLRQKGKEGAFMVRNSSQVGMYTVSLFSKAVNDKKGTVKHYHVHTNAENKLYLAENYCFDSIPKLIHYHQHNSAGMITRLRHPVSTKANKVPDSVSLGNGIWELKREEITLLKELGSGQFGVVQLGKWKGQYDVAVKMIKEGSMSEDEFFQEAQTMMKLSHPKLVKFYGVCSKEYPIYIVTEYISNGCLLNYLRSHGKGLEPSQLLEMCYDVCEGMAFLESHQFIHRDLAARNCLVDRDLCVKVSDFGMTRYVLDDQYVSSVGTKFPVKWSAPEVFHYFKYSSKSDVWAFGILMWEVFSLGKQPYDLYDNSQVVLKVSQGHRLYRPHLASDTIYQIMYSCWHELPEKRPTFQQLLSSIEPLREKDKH
Sequence of Receptor-type tyrosine-protein kinase FLT3 (Homo sapiens) (P36888 whole entry): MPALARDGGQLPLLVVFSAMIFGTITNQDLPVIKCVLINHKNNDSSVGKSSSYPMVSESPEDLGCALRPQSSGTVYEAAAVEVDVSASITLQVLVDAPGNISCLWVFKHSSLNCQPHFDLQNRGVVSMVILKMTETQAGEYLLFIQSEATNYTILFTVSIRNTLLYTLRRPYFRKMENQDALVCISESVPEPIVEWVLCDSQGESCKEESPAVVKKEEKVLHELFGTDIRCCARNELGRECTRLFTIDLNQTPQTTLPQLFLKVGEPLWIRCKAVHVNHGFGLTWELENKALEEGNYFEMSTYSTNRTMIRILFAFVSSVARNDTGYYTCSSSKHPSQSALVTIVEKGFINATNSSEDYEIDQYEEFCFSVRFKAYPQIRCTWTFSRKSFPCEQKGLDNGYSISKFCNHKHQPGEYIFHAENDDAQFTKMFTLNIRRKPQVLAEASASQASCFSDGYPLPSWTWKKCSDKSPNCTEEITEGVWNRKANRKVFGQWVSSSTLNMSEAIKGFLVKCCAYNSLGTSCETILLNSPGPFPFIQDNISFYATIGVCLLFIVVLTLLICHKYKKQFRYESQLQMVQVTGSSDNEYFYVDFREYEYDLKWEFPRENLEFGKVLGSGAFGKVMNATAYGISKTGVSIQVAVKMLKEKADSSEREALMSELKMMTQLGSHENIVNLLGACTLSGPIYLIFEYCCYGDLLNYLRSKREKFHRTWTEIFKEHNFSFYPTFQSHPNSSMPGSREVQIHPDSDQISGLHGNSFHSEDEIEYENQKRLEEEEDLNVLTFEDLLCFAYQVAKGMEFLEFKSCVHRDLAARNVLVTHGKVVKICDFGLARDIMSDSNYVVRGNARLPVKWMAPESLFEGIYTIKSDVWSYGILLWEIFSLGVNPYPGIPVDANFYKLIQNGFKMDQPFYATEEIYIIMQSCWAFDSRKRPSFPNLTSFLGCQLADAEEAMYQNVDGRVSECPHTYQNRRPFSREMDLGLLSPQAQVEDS
Sequence of Insulin-like growth factor 1 receptor (Homo sapiens) (P08069 31-736 limits assumed): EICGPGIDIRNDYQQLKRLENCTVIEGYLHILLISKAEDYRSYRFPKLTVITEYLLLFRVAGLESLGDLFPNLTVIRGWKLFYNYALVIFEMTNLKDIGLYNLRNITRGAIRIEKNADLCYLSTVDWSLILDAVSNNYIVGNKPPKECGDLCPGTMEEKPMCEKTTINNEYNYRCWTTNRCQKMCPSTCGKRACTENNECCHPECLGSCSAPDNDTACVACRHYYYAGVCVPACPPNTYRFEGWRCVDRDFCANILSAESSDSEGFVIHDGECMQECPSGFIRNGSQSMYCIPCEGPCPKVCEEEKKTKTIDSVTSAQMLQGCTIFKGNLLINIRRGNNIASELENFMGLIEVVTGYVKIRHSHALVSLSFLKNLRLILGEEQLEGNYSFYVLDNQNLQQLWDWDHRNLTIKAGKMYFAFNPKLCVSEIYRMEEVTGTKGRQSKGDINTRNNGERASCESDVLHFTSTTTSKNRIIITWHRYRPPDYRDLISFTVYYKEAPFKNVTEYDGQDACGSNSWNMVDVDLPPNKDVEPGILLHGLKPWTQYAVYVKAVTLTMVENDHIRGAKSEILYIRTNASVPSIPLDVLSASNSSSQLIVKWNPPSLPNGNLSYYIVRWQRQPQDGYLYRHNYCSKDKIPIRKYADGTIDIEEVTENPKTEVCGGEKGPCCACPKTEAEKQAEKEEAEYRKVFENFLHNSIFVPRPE
Sequence of Insulin-like growth factor 1 receptor (Homo sapiens) (P08069 741-1367 limits assumed): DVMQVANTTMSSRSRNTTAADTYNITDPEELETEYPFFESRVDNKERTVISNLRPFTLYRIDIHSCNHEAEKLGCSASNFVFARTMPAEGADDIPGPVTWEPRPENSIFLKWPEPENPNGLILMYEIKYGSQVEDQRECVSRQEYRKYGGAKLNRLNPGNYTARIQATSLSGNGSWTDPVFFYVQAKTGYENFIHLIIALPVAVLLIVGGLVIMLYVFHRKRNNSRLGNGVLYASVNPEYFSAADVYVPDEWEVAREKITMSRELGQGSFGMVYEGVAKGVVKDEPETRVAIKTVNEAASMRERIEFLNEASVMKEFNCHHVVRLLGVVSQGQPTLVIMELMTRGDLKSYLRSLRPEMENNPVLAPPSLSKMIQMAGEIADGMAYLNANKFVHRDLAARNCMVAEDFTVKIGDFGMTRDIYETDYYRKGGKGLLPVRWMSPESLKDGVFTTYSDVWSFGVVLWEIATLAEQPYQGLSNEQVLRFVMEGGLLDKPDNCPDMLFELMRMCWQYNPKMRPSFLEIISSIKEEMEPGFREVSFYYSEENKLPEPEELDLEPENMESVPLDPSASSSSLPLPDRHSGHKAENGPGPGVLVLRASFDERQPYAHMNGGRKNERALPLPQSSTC
Sequence of Proto-oncogene tyrosine-protein kinase Src (Homo sapiens) (P12931 2-536 limits assumed): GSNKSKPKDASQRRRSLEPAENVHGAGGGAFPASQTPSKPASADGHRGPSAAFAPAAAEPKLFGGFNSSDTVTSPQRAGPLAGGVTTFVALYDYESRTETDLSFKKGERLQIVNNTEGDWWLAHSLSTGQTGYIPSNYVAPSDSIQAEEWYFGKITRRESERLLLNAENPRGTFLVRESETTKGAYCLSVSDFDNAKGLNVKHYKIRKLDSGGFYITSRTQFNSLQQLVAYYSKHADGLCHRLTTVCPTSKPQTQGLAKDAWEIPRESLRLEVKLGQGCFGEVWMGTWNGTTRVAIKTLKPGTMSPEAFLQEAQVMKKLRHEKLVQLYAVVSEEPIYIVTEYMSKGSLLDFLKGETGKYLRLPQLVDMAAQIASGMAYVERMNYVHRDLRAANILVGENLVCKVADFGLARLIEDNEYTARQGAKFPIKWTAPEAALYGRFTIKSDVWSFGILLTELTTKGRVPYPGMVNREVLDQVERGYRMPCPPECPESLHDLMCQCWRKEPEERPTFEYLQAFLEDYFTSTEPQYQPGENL

CN1CCN(c2ccc(Nc3nc(-n4nc(N)c5ccccc54)c4cc[nH]c4n3)cc2)CC1
inhibition (4T1-Luc): Active | Activity [1]: Non-Toxic | Activity [2]: Non-Toxic | Activity (4T1 [3]): Active | Activity (MCF7 [4]): Active | Activity (4T1 [5]): 0.32% | Activity (4T1 [6]): 1.61% | Activity (4T1 [7]): 5.41% | Activity (MCF7 [8]): 0.38% | Activity (MCF7 [9]): 14.31% | Activity (MCF7 [10]): 6.55% | Activity (MCF7 [11]): Dose-Dependent Effect | Activity (4T1 [12]): Dose-Dependent Effect | Activity (MCF7 [13]): Dose-Dependent Effect | Activity (Vero): Non-Toxic | Activity (L02): Non-Toxic | inhibition (ES-2): Active | inhibition (OVCAR-3 [14]): Active | inhibition (MCF7 [15]): Tde | IC50 (HCT-116): 1060 nM | IC50 (OVCAR-3 [16]): > 3000 nM | IC50 (MCF7 [17]): 370 nM | IC50 (MDA-MB-231): 2680 nM | inhibition [18]: 55% | inhibition [19]: 86% | inhibition [20]: 43% | inhibition [21]: 96% | inhibition [22]: 95% | inhibition [23]: 80%
